# Measurements as given in US7279161B2, “Factor IX/factor IXa activating antibodies and antibody derivatives” (Baxter Aktiengesellschaft, priority 1999, dated 2007).
# What was measured:
# FVIII deficient plasma = assay: aPTT based one stage clotting assay in FVIII deficient plasma; format: biochemical, human
# Description: During normal hemostasis, FIX becomes initially activated either by the tissue factor (TF)/factor VIIa pathway or later on by activated factor XI (FXIa). Subsequent to its activation, FIXa associates on the platelet surface in a membrane bound complex with activated FVIII. […] Different amounts of antibody 193/AD3 or mouse IgG (as a control) were used in a standard aPTT based one stage clotting assay. Briefly, 100 μl of antibody-containing samples were incubated with 100 μl of FVIII deficient plasma (DP) and with 100 μl of DAPTTIN (PTT Reagent for determining activated Thromboplastin Time; IMMUNO AG) reagent, in a KC10A clotting analyzer. Where indicated, a total amount of 50 ng activated FIX was included in the reaction mixture. After a 4 minute incubation, the reaction was started by the addition of 100 μl CaCl2 (25 mM).
# The peptides were also analyzed for their potential to reduce the clotting time in a FVIII deficient plasma. The aPTT based one stage clotting assay was essentially done as described (see example 6). Clotting times (time from starting the reaction to the “clot”-formation were compared either against FVIII, a buffer control (IZ) or a control peptide (scrambled version). The results of two typical clotting experiments done with two different aPTT reagents (DAPTTIN and Pathromtin SL) are shown in table 3A and table 3B.
# human FIXa = biological target: T1, human FIXa (Homo sapiens, UniProt P00740); assay: Chromogenic FVIII-like (FXa generation) assay with human FIXa added; format: biochemical; conditions: 12 μM peptide, 2.3 nM human FIXa
# T1 construct: with (+) and without (−) addition of 50 ng human FIXaβ; purchased ERL (Enzyme Research Laboratories)
# Description: The chromogenic activity of these antibody preparations was measured in the following FXa generation kinetic assay: 10 μg of monoclonal antibody (in 25 μl) were transferred to microtiter plate wells and warmed to 37° C. Chromogenic substrate (S-2222), synthetic thrombin inhibitor (I-2581), factor IXa and FX were reconstituted in sterile water and FIXa/FX (both bovine) were mixed with phospholipids according to the supplier's protocol. Per reaction, 50 μl of the phospholipid/FIXa/FX solution were combined with 25 μl CaCl2 (25 mM) and 50 μl of the substrate/inhibitor cocktail. To start the reaction, 125 μl of the premix were added to the monoclonal antibody solution in the microtiter plates and incubated at 37° C. Absorbance at 405 nm and 490 nm of the samples was read at various times (5 min to 2 h) against a reagent blank ([…] TBS instead of monoclonal antibodies) in a Labsystems iEMS Reader MF™ microtiter plate reader using GENESIS™ software. In parallel, the same reactions were performed except that 50 ng human FIXa were added per reaction.
# To analyze the FVIII-like (FIXa activating) activity of the peptides, an assay system based on a commercial available FVIII assay was developed (see examples 2 and 4). The basic principle is, that without a cofactor, FIXa will have very limited activity towards its natural substrate FX. […] The amount of FXa generated is monitored by cleavage of a chromogenic substrate. The principle of the revised chromogenic assay is described for two representative peptides: A1/3 and A1/5 (Table 2). Briefly, 25 μl aliquots of peptide stock solution (in imidazole buffer (IZ) 50 mM imidazole, 100 mM NaCl, pH 7.2) were transferred to microtiter plate wells and warmed to 37° C. Chromogenic FXa substrate (S-2222), synthetic thrombin inhibitor (I-2581), bovine FIXa and bovine FX were reconstituted in sterile water and FIXa/FX mixed with phospholipids according to the supplier's protocol. […] Per reaction, 50 μl of the phospholipid/FIXa/FX solution were combined with 25 μl CaCl2 (25 mM) and 50 μl of the substrate/inhibitor cocktail. To start the reaction, 125 μl of the premix were added to the peptide solution in the microtiter plate and incubated at 37° C. Absorbance at 405 nm and 490 nm of the samples was read at various times (5 min to 2 h) against a reagent blank in a Labsystems iEMS Reader MF™ microtiter plate reader using GENESIS™ software.
# T1 sequence (P00740 47-191 limits assumed): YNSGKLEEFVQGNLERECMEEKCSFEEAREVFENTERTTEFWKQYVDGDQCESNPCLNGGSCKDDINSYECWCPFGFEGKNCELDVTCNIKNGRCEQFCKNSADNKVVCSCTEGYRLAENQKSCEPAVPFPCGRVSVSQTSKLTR
# T1 sequence (P00740 227-461 limits assumed): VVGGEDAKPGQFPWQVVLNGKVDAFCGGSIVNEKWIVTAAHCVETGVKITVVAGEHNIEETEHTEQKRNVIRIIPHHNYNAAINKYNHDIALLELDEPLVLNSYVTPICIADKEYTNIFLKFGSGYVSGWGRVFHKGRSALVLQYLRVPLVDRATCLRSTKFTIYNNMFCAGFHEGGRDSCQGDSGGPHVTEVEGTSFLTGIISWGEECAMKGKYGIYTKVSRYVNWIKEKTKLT
substance,measurement,setting,value
RdRdRdEGGGYYVNWYFDRdRdRd [A1/3-Rd],average clotting time,"FVIII deficient plasma; Table 4, 1.25 μM, 2.2 nM FIXa",96 s
same,clotting time,"FVIII deficient plasma; Table 4, 1.25 μM, 2.2 nM FIXa, duplicate 1",96.6 s
same,clotting time,"FVIII deficient plasma; Table 4, 1.25 μM, 2.2 nM FIXa, duplicate 2",96 s
same,average clotting time,"FVIII deficient plasma; Table 4, 1.25 μM, w/o FIXa",108 s
same,clotting time,"FVIII deficient plasma; Table 4, 1.25 μM, w/o FIXa, duplicate 1",107.5 s
same,clotting time,"FVIII deficient plasma; Table 4, 1.25 μM, w/o FIXa, duplicate 2",107.7 s
same,average clotting time,"FVIII deficient plasma; Table 4, 2.5 μM, 2.2 nM FIXa",95 s
same,clotting time,"FVIII deficient plasma; Table 4, 2.5 μM, 2.2 nM FIXa, duplicate 1",94.4 s
same,clotting time,"FVIII deficient plasma; Table 4, 2.5 μM, 2.2 nM FIXa, duplicate 2",94.7 s
same,average clotting time,"FVIII deficient plasma; Table 4, 2.5 μM, w/o FIXa",103 s
same,clotting time,"FVIII deficient plasma; Table 4, 2.5 μM, w/o FIXa, duplicate 1",102.7 s
same,clotting time,"FVIII deficient plasma; Table 4, 2.5 μM, w/o FIXa, duplicate 2",103.4 s
same,average clotting time,"FVIII deficient plasma; Table 4, 5 μM, 2.2 nM FIXa",86 s
same,clotting time,"FVIII deficient plasma; Table 4, 5 μM, 2.2 nM FIXa, duplicate 1",86 s
same,clotting time,"FVIII deficient plasma; Table 4, 5 μM, 2.2 nM FIXa, duplicate 2",85.1 s
same,average clotting time,"FVIII deficient plasma; Table 4, 5 μM, w/o FIXa",99 s
same,clotting time,"FVIII deficient plasma; Table 4, 5 μM, w/o FIXa, duplicate 1",99.2 s
same,clotting time,"FVIII deficient plasma; Table 4, 5 μM, w/o FIXa, duplicate 2",99.1 s
same,average clotting time,"FVIII deficient plasma; Table 4, 7.5 μM, 2.2 nM FIXa",82 s
same,clotting time,"FVIII deficient plasma; Table 4, 7.5 μM, 2.2 nM FIXa, duplicate 1",80.9 s
same,clotting time,"FVIII deficient plasma; Table 4, 7.5 μM, 2.2 nM FIXa, duplicate 2",82.2 s
same,average clotting time,"FVIII deficient plasma; Table 4, 7.5 μM, w/o FIXa",98 s
same,clotting time,"FVIII deficient plasma; Table 4, 7.5 μM, w/o FIXa, duplicate 1",97.6 s
same,clotting time,"FVIII deficient plasma; Table 4, 7.5 μM, w/o FIXa, duplicate 2",98.1 s
same,average clotting time,"FVIII deficient plasma; Table 4, 10 μM, 2.2 nM FIXa",76 s
same,clotting time,"FVIII deficient plasma; Table 4, 10 μM, 2.2 nM FIXa, duplicate 1",74.2 s
same,clotting time,"FVIII deficient plasma; Table 4, 10 μM, 2.2 nM FIXa, duplicate 2",77.2 s
same,average clotting time,"FVIII deficient plasma; Table 4, 10 μM, w/o FIXa",95 s
same,clotting time,"FVIII deficient plasma; Table 4, 10 μM, w/o FIXa, duplicate 1",93.5 s
same,clotting time,"FVIII deficient plasma; Table 4, 10 μM, w/o FIXa, duplicate 2",95.8 s
same,average clotting time,"FVIII deficient plasma; Table 4, 12.5 μM, 2.2 nM FIXa",73 s
same,clotting time,"FVIII deficient plasma; Table 4, 12.5 μM, 2.2 nM FIXa, duplicate 1",72.3 s
same,clotting time,"FVIII deficient plasma; Table 4, 12.5 μM, 2.2 nM FIXa, duplicate 2",73.7 s
same,average clotting time,"FVIII deficient plasma; Table 4, 12.5 μM, w/o FIXa",98 s
same,clotting time,"FVIII deficient plasma; Table 4, 12.5 μM, w/o FIXa, duplicate 1",98 s
same,clotting time,"FVIII deficient plasma; Table 4, 12.5 μM, w/o FIXa, duplicate 2",98.6 s
same,average clotting time,"FVIII deficient plasma; Table 4, 15 μM, 2.2 nM FIXa",75 s
same,clotting time,"FVIII deficient plasma; Table 4, 15 μM, 2.2 nM FIXa, duplicate 1",76.1 s
same,clotting time,"FVIII deficient plasma; Table 4, 15 μM, 2.2 nM FIXa, duplicate 2",74.4 s
same,average clotting time,"FVIII deficient plasma; Table 4, 15 μM, w/o FIXa",96 s
same,clotting time,"FVIII deficient plasma; Table 4, 15 μM, w/o FIXa, duplicate 1",96.4 s
same,clotting time,"FVIII deficient plasma; Table 4, 15 μM, w/o FIXa, duplicate 2",95.4 s
same,aPTT based one-stage clotting activity,FVIII deficient plasma; compared with A1/3,"somewhat reduced, was still easily detectable"
same,chromogenic activity,human FIXa,virtually unchanged
same,chromogenic activity,human FIXa; listed as A1/3-rd,did not change the FVIII-like activity
